# According to patent US10363251B2, “(+)-morphinans as antagonists of toll-like receptor 9 and therapeutic uses thereof” (Mallinckrodt LLC, priority 2009, dated 2019):
# “Also recorded” adds a separate entry of the source. Like-named read-outs stand apart in the source and are kept apart here.
# Assays:
# TLR9 = target: T1, TLR9 (Homo sapiens, UniProt Q9NR96); assay: TLR9 screening of (+)-morphinan library, SEAP reporter in HEK293 cells expressing TLR9; type: cell-based; conditions: activator ODN2006; for OD 650 nm (mean ± sd): control (no activator) 0.14, activator 1.42 OD
# T1 construct: expressed in transfected cells; host or cells: HEK293
# T1 sequence (Q9NR96 26-1032): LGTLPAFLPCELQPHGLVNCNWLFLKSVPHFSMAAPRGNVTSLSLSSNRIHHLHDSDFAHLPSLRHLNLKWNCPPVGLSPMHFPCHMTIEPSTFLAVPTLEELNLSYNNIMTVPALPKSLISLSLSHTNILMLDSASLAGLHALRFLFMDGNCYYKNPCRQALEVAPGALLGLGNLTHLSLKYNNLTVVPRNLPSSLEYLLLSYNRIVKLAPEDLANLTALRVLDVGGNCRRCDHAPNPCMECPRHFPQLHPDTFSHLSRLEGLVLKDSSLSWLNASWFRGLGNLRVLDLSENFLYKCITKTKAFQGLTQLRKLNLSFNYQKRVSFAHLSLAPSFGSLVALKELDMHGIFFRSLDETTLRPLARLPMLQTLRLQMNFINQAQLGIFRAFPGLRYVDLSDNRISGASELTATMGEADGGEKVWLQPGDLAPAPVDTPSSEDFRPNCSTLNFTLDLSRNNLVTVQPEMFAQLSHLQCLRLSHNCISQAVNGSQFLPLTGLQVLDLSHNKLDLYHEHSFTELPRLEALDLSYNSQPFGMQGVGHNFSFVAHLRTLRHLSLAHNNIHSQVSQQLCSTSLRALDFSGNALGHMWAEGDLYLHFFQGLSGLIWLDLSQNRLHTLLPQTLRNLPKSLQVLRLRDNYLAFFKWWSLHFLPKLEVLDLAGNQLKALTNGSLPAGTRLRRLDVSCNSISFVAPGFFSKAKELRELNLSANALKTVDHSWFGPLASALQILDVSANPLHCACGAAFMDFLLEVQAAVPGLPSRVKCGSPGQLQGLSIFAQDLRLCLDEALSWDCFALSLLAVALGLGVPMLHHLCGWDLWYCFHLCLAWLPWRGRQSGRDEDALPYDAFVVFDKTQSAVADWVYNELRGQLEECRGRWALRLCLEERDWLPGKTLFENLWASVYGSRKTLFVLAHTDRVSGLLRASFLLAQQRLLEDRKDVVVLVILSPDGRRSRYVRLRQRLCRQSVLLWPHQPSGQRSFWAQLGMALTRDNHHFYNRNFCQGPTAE
# How it was run: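 HEK293 cells expressing TLR9 with an NF-κB-inducible SEAP reporter were preincubated with compound at 10 μM and 100 nM for 30 min at 37 °C, then stimulated with ODN2006. SEAP was read as OD 650 nm after 16-20 h, in triplicate.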
# [1] = test system: chronic constriction injury (CCI) neuropathic pain model; assay: Reversal of allodynia (von Frey) in CCI rats, 4 days of dosing, Example 4; type: in vivo, rat; conditions: for Animals sleepier/sedated on at least one post dosing occasion / Local observations (swelling, irritation): i.p.; for Reversal of allodynia (von Frey): i.p. once a day for 4 days from day 14, tested 3 hrs after dosing, ultra low to high dose; for Reversal of allodynia (von Frey) / Area under the curve (AUC) analysis of allodynia: vs saline; for Area under the curve (AUC) analysis of allodynia: i.p. once a day for 4 days
# Procedure: Allodynia was induced in a group of (male, Sprague-Dawley) rats essentially as described above in Example 3. Prior to surgery, animals were tested to establish their baseline von Frey scores. Any animal with a Log absolute von Frey score lower than 4.65 on either leg was excluded from the study. CCI surgery was performed on the left sciatic nerve as detailed above. On days 4 and 14 post-surgery, the animals were tested using the von Frey test of mechanical allodynia to ensure that allodynia was established.
# Beginning at about day 14 post-surgery, the animals were dosed once a day for 4 days. Compounds II-25, II-93, II-62, and III-2 were tested. All drugs were administered intraperitoneally (i.p.). Allodynia was tested prior to and again 3 hrs after each dosing. Drug administration and testing was done blindly. After the 4th day of dosing, the animals were sacrificed, cardiac perfusion was performed, and spinal cords were removed and stored for further analysis.
# All data were analyzed using 2-way ANOVA's with Bonferroni's post hoc test compared to saline unless otherwise stated. Area under curve (AUC) was calculated using Graphpad Prism and comparisons were made using 1-way ANOVA with Dunnet's post hoc test.
# [2] = test system: APAP-induced liver toxicity; assay: Acetaminophen (APAP)-induced hepatotoxicity model; type: in vivo, mouse; conditions: APAP 500 mg/Kg ip, 12 hours post-APAP; for Protection from APAP-induced toxicity: test doses and timing per Table 6; for Liver histology scores (necrosis and hemorrhage): vs APAP alone
# Procedure: For this, APAP-induced liver toxicity was induced in male C57BL/6 mice aged between 8-10 weeks by a single intraperitoneal (ip) injection of APAP in PBS at a dose of 500 mg/Kg (Imaeda et al. (2009) J. Clin. Invest. 119(2):305-314). The ability of (+)-morphinans to reduce liver toxicity was tested in the following groups:
# The (+)-morphinan (or PBS) was either administered as a single subcutaneous (sc) or ip injection concurrent with the APAP injection or one hour prior to the APAP injection.
# The mice were sacrificed 12 hours post-APAP treatment. Liver samples were stained with H&E and analyzed for signs of necrosis and hemorrhage. Histology scores were assigned using the standard rating scale. The levels of serum alanine transaminase (ALT) were also measured in each animal using a standard assay.
# [3] = HEK293, read-out: % Inhibition (mean), 100 nM
# [4] = HEK293, read-out: % Inhibition (mean), 10 μM
# [5] = HEK293, 100 nM, read-out: % Inhibition (mean)
# [6] = HEK293, 10 μM, read-out: % Inhibition (mean)
smiles,measurement,setting,value
COc1ccc2c3c1O[C@@H]1[C@H](O)CC[C@@H]4[C@H](C2)N(CC2CC2)CC[C@]341 [II-25],OD 650 nm (mean ± sd),TLR9; 100 nM,1.33 ± 0.07 OD
same,OD 650 nm (mean ± sd),TLR9; 10 μM,0.21 ± 0.06 OD
same,inhibition at 0.1 µM,TLR9; [3],6%
same,inhibition at 10 µM,TLR9; [4],85%
same,Animals sleepier/sedated on at least one post dosing occasion,[1]; high dose,5-6
same,Reversal of allodynia (von Frey),[1],significant overall effect on the reversal of allodynia bilaterally; also recorded: effective at reversing mechanical allodynia
same,Area under the curve (AUC) analysis of allodynia,[1],significantly reversed allodynia
CN(C(=O)/C=C/c1ccoc1)[C@H]1CC[C@]2(O)[C@@H]3Cc4ccc(O)c5c4[C@]2(CCN3CC2CC2)[C@@H]1O5 [II-62],OD 650 nm (mean ± sd),TLR9; 100 nM,1.34 ± 0.05 OD
same,OD 650 nm (mean ± sd),TLR9; 10 μM,0.18 ± 0.01 OD
same,inhibition at 0.1 µM,TLR9; [3],6%
same,inhibition at 10 µM,TLR9; [4],87%
same,"Time course analysis of allodynia, ipsilateral paw",[1]; Day 4 of dosing,slight reversal of allodynia
same,Animals sleepier/sedated on at least one post dosing occasion,[1]; high dose,two
same,"Local observations (swelling, irritation)",[1]; high dose,appeared to irritate the rats when it was injected; also recorded: swelling around the site of injection
same,Reversal of allodynia (von Frey),[1],did not significantly reverse allodynia at any dose
same,Area under the curve (AUC) analysis of allodynia,[1],no overall effect of any dose
same,Animals sleepier/sedated on at least one post dosing occasion,[1]; low dose,one
same,Animals sleepier/sedated on at least one post dosing occasion,[1]; medium dose,one
C=CCN1CC[C@@]23c4c5ccc(OC)c4OC2C(NCCC)CCC3C1C5 (stereo partly drawn) [II-93],OD 650 nm (mean ± sd),TLR9; 100 nM,0.12 ± 0.00 OD
same,OD 650 nm (mean ± sd),TLR9; 10 μM,0.11 ± 0.01 OD
same,inhibition at 0.1 µM,TLR9; [3],91%
same,inhibition at 10 µM,TLR9; [4],92%
same,Animals sleepier/sedated on at least one post dosing occasion,[1]; high dose,7
same,"Local observations (swelling, irritation)",[1]; high dose,swelling of the ipsilateral paw
same,Reversal of allodynia (von Frey),[1],significantly reversed allodynia in the ipsilateral paw after the high dose only; also recorded: effective at reversing mechanical allodynia
same,Area under the curve (AUC) analysis of allodynia,[1],significant reversal of allodynia in the ipsilateral paw
same,Animals sleepier/sedated on at least one post dosing occasion,[1]; low dose,one
same,Animals sleepier/sedated on at least one post dosing occasion,[1]; medium dose,two
same,Protection from APAP-induced toxicity,[2],"None of compounds II-24, II-93, or III-2 provided any protection"
same,Liver histology scores (necrosis and hemorrhage),[2],about the same as those only exposed to APAP
COc1ccc2c3c1O[C@@H]1C(OC)(OC)CCC4[C@H](C2)N(CC2CC2)CC[C@]341 (stereo partly drawn) [II-99],OD 650 nm (mean ± sd),TLR9; 100 nM,1.32 ± 0.00 OD
same,OD 650 nm (mean ± sd),TLR9; 10 μM,0.14 ± 0.01 OD
same,inhibition at 0.1 µM,TLR9; [3],7%
same,inhibition at 10 µM,TLR9; [4],90%
COC1=CCC2[C@@H]3Cc4ccc(OC)c5c4[C@]2(CCN3C(=O)Oc2ccccc2)[C@@H]1O5 (stereo partly drawn) [II-100],OD 650 nm (mean ± sd),TLR9; 100 nM,1.16 ± 0.02 OD
same,OD 650 nm (mean ± sd),TLR9; 10 μM,1.45 ± 0.11 OD
same,inhibition at 0.1 µM,TLR9; [3],18%
same,inhibition at 10 µM,TLR9; [4],-2%
COc1ccc2c3c1O[C@@H]1C(OC)(OC)C(Br)CC4[C@H](C2)N(C)CC[C@]341 (stereo partly drawn) [II-101],OD 650 nm (mean ± sd),TLR9; 100 nM,1.35 ± 0.06 OD
same,OD 650 nm (mean ± sd),TLR9; 10 μM,0.94 ± 0.02 OD
same,inhibition at 0.1 µM,TLR9; [3],5%
same,inhibition at 10 µM,TLR9; [4],34%
COc1ccc2c(c1)CCN[C@@H]2Cc1ccc(OC)c(O)c1 [III-1],OD 650 nm (mean ± sd),TLR9; 100 nM,1.34 ± 0.06 OD
same,OD 650 nm (mean ± sd),TLR9; 10 μM,0.67 ± 0.01 OD
same,inhibition at 0.1 µM,TLR9; [5],6%
same,inhibition at 10 µM,TLR9; [6],53%
C=CCN1CCc2cc(OC)ccc2[C@H]1Cc1ccc(OC)c(O)c1 [III-2],OD 650 nm (mean ± sd),TLR9; 100 nM,1.13 ± 0.02 OD
same,OD 650 nm (mean ± sd),TLR9; 10 μM,0.42 ± 0.04 OD
same,inhibition at 0.1 µM,TLR9; [5],21%
same,inhibition at 10 µM,TLR9; [6],71%
same,Reversal of allodynia (von Frey),[1],no effect on allodynia at any dose
same,Animals sleepier/sedated on at least one post dosing occasion,[1]; low dose,Two
same,Protection from APAP-induced toxicity,[2],"None of compounds II-24, II-93, or III-2 provided any protection"
same,Liver histology scores (necrosis and hemorrhage),[2],about the same as those only exposed to APAP
COc1ccc2c(c1)CCN(CC1CC1)[C@@H]2Cc1ccc(OC)c(O)c1 [III-3],OD 650 nm (mean ± sd),TLR9; 100 nM,1.03 ± 0.03 OD
same,OD 650 nm (mean ± sd),TLR9; 10 μM,0.13 ± 0.01 OD
same,inhibition at 0.1 µM,TLR9; [5],27%
same,inhibition at 10 µM,TLR9; [6],91%
COc1ccc2c(c1)CCN(CC1CCC1)[C@@H]2Cc1ccc(OC)c(O)c1 [III-4],OD 650 nm (mean ± sd),TLR9; 100 nM,1.04 ± 0.04 OD
same,OD 650 nm (mean ± sd),TLR9; 10 μM,0.11 ± 0.01 OD
same,inhibition at 0.1 µM,TLR9; [5],27%
same,inhibition at 10 µM,TLR9; [6],92%
COc1ccc2c(c1)CCN(C)[C@@H]2Cc1ccc(OC)c(O)c1 [III-5],OD 650 nm (mean ± sd),TLR9; 100 nM,1.11 ± 0.02 OD
same,OD 650 nm (mean ± sd),TLR9; 10 μM,0.29 ± 0.01 OD
same,inhibition at 0.1 µM,TLR9; [5],22%
same,inhibition at 10 µM,TLR9; [6],80%
